According to PMC10895676, “Antiviral Activity of Lipophilic Nucleoside Tetraphosphate Compounds” (Journal of Medicinal Chemistry, 2024):
“Also recorded” adds a separate entry of the source.

Biological target: T1, human DNA polymerase γ (Homo sapiens, UniProt P54098)
T1 construct: purchased Chimerx
T1 sequence (P54098 1-1239): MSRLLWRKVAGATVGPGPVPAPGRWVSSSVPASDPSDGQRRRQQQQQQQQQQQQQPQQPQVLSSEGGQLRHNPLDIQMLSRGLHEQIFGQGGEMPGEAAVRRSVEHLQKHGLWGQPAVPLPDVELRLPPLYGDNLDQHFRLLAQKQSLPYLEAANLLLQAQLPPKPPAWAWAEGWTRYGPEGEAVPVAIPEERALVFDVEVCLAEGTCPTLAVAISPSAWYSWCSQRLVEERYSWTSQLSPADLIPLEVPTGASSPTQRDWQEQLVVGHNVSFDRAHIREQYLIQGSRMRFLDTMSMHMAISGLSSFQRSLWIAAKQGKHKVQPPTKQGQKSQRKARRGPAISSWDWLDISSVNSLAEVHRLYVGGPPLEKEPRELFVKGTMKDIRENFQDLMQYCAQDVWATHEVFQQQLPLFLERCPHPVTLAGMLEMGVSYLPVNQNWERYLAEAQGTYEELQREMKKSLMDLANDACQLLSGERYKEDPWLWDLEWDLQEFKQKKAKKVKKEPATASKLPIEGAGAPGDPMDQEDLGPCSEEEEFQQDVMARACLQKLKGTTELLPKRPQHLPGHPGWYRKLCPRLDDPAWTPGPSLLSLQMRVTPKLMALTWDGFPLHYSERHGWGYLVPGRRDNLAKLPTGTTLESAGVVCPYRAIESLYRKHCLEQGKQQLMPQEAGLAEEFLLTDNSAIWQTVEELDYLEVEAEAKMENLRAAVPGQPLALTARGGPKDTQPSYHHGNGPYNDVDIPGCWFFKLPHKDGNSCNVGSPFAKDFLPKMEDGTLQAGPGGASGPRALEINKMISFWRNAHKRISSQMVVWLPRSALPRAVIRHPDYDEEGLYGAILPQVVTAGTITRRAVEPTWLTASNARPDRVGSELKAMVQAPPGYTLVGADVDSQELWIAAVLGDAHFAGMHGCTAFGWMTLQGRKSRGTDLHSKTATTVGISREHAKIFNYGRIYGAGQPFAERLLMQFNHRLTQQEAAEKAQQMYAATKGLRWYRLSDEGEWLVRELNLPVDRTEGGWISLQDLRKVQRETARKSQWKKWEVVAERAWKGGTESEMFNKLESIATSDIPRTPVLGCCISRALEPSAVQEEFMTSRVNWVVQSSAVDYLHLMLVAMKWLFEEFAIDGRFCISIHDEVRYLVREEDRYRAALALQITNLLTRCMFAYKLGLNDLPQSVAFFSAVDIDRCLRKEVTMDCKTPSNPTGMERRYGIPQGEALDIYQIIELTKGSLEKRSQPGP
Experiment: Primer extension assay using human DNA polymerase γ
Type: biochemical
Conditions: 120 min, 2 U, 37 °C
Source text: Encouraged by the previously obtained results that γ-phosphate-modified-d4TDPs 3, γ-monoalkylated d4TTP derivatives as well as d4TDP were accepted as substrates by HIV-RT,[49],[50],[55],[59]−[61] δ-dialkylated d4T tetraphosphate analogues 4,5, δ-monoalkylated d4T tetraphosphate analogues 20 and 24 and d4T4P were investigated in primer extension assays in the presence of HIV-RT or the three different human DNA polymerases α, β and γ. D4TTP (for the compounds 4–9) and the natural thymidine triphosphate (TTP) were used as reference compounds.
Figure 6 Primer extension assay using HIV-RT (A), human polymerases α (B), β (C), and γ (D). (Figure 6A). Primer extension assay using HIV-RT (30 min, 6U). Lane 1: (+) dATP, dCTP, dGTP, and TTP with HIV-RT. Lane 2: (−) dATP, dCTP, dGTP, and TTP without HIV-RT. Lane 3: TTP. […] Lane 5: δ-(C4; C18)-d4T4P 4d. […] Lane 7: δ-(C18)-d4T4P 20. Lane 8: δ-C-(C18)-d4T4P 24. Lane 9: d4T4P. Lane 10: d4TTP. Lane 11: d4TDP. HIV-RT assay reaction conditions: 50 mM Tris–HCl (pH 8.6), 10 mM MgCl2, 40 mM KCl, 250 μM dNTPs, HIV-RT (6 U), 0.20 μM DNA hybrid, primer-template-hybrid 0.32 mM in a reaction volume of 10 μL, incubated at 37 °C for 0.5 h, 80 °C for 7 min. Primer extension assays: 50 mA, 45 w for 4 h. (Figure 6B). For human DNA polymerase α assay (60 min, 2 U): Lane 1: (+) dATP, dCTP, dGTP, and TTP with human polymerase α. Lane 2: (−) dATP, dCTP, dGTP, and TTP without human polymerase α. Lane 3: TTP. […] Lane 5: δ-(C4; C18)-d4T4P 4d. […] Lane 7: δ-(C18)-d4T4P 20. Lane 8: δ-C-(C18)-d4T4P 24. Lane 9: d4T4P. Lane 10: d4TTP. Human DNA polymerase α assay conditions: 60 mM Tris–HCl (pH 8), 5 mM Mg(OAc)2, 100 mM KCl, 1.0 mM dithiothreitol, 0.1 mM spermine, 0.01% (w/v) bovine serum albumin, 250 μM dNTPs, 2 U human polymerase α, 0.20 μM DNA hybrid, and primer-template-hybrid 0.32 mM in a reaction volume of 10 μL, incubated at 37 °C for 1 h, 80 °C for 7 min. Primer extension assays: 50 mA, 45 w for 3 h. (Figure 6C). For human DNA polymerase β assay (60 min, 2 U): Lane 1: (+) dATP, dCTP, dGTP, and TTP with human polymerase β. […]

SMILES	substrate for human DNA polymerase γ (primer extension)
CCCCCCCCCCCCCCCCCCP(=O)(O)OP(=O)(O)OP(=O)(O)OP(=O)(O)OC[C@@H]1C=C[C@H](n2cc(C)c(=O)[nH]c2=O)O1 [compound 24, δ-C-(Alkyl-C18)-d4T4P]	nonsubstrates
CCCCCCCCCCCCCCCCCCOP(=O)(O)OP(=O)(O)OP(=O)(O)OP(=O)(O)OC[C@@H]1C=C[C@H](n2cc(C)c(=O)[nH]c2=O)O1 [compound 20, δ-(Alkyl-C18)-d4T4P]	nonsubstrates
Cc1cn([C@H]2C=C[C@@H](COP(=O)(O)OP(=O)(O)OP(=O)(O)OP(=O)(O)O)O2)c(=O)[nH]c1=O [d4T4P, 2′,3′-didehydro-2′,3′-dideoxythymidine-5′-tetraphosphate]	nonsubstrates; also recorded: not a substrate
